Where two headings read alike, the source gives them in different places.

Consider one compound from PMC5740082, “Identification of a CARM1 Inhibitor with Potent In Vitro and In Vivo Activity in Preclinical Models of Multiple Myeloma” (Scientific Reports, 2017).

Data set [1] has as its system KASUMI-1. Nature of the data set: Six-day cell proliferation assay (CellTiter-Glo). The class given is cell-based. Conditions: Homo sapiens, 144 h; KASUMI-1 (AML), 6 days; read-out: Average day 6 gIC50. How it is done:
(§1) Six-day cell proliferation assay
(§2) Optimal cell seeding density was determined empirically for each cell lines by examining the gro wth of a wide ran ge o f seedin g densities in a 3 84-well formatto identify conditio ns that permitted maximal and continued proliferation for 6 days. Cells were plat ed in duplicate plates 24 hours before treatment with a 20- point two-fold dilution series of compound or 0.15%
(§3) DMSO. Plates were incubated for 6 da ys at 37°C in 5% CO2. Cells were th en l ysed with CellTiter-Glo (CTG) (Pr omega) and chemiluminescent sign al was detected with an appropriat e microplate reader. In addition, an untreated plate of cells was harvested at the time of compound addition (T0) to quantif y the initial cell densit y. CTG values obtained after 6 days of treatment were expressed as a percent of the T0 value and plotted against compound concentration. […]
(§4) Supplementary Table S 3. […] A p anel […]
(§5) of cell lines was treated with EZM2302fo r 6da ys in a proliferation ass a y. Cell densit y (as assessed b y CellTiter-Gl o) at da y 0 was compared to day 6 to det ermine growth IC 50 values , calculated us i n g a f our parameter dose response equation.
(§6) Cell Type According to Cell Type Category Cell L ine Name gIC50 Average day 6 Standard Replicates
(§7) Supplier Modifier gIC50 (nM) Deviation […]
(§8) Burkitt lymphoma lymphoma NC-37 > 7331 0 2 […]
For orientation: In ATP-based viability assays light output follows the ATP content of the culture.

Data set [2] concerns NCI-H929. Briefly: Six-day cell proliferation assay (CellTiter-Glo). The note with it: Homo sapiens, 144 h; NCI-H929 (MM), 6 days; read-out: Average day 6 gIC50. The class given is cell-based. As for the experimental part:
as §1, §2, §3, §4, §5, §6, §7, §8

Data set [3] relates to KMS-12BM. Nature of the data set: Six-day cell proliferation assay (CellTiter-Glo). Conditions: Homo sapiens, 144 h; KMS-12BM (MM, Bone marrow), 6 days; read-out: Average day 6 gIC50. The class given is cell-based. As for the experimental part:
as §1, §2, §3, §4, §5, §6, §7, §8

Data set [4] has as its system NC-37. Briefly: Six-day cell proliferation assay (CellTiter-Glo). The class given is cell-based. The note with it: Homo sapiens, 144 h; NC-37 (Burkitt lymphoma), 6 days; read-out: Average day 6 gIC50. As for the experimental part:
as §1, §2, §3, §4, §5, §6, §7, §8

The subject of data set [5] is REC-1. Nature of the data set: Six-day cell proliferation assay (CellTiter-Glo). The class given is cell-based. The note with it: Homo sapiens, Rec1, 144 h; REC-1 (B-NHL), 6 days; read-out: Average day 6 gIC50. As for the experimental part:
as §1, §2, §3, §4, §5, §6
Supplier Modifier gIC50 (nM) Deviation

For data set [6], the system named is PABP1 and SmB methylation in NCI-H929 cells. Nature of the data set: Western blot of cellular methyl marks, NCI-H929. The note with it: Homo sapiens, NCI-H929, 96 h.
Method: Methylation changes were measured at the well-characterized CARM1 substrates PABP1 and SmB[1],[10]. Changes in overall levels of asymmetric dimethyl arginine (aDMA) were assessed with an antibody that detects a generic aDMA motif. Levels of methylated analytes were quantified by densitometry and ratios of methylated to total protein were calculated to determine the cell biochemical IC50 values.
Cultured cells in linear/log phase growth were split to a seeding density of 2e5 cells/mL in 2–20mLs of media, depending on the yield required at the end of the growth period. Compound was diluted in DMSO and added to each culture vessel with a final DMSO concentration of 0.2%. Cells were allowed to grow for 96 hours. At the conclusion of each treatment period, cells were harvested by centrifugation (5 minutes, 1200 rpm), and cell pellets were rinsed once with PBS before being frozen on dry ice pending further processing.
Quantification of Western blots was performed using infra-red emitting secondary antibodies and detection with an ODYSSEY infrared imaging system.
Data set [7] concerns 40 protein kinases, lipid kinases and kinase mutants. Nature of the data set: KinaseProfiler screen (Millipore). The class given is biochemical. The note with it: 10 μM.
The test system of data set [8] is 55 receptors, ion channels and transporters. Nature of the data set: ExpresSProfile (CEREP) screen. The class given is binding. Conditions: 10 μM. The source says: […]. […] […]. […] […].
Data set [9] can be described thus: Hepatocyte stability. Conditions: 1 µM. The class given is in vitro ADME. As for the experimental part: Hepatocyte stability, plasma protein binding and cytochrome P450 assays were performed using standard procedures. Details can be found in Supplementary Methods. […]
where K I and K J are th e inhibition constants for I and J , respectivel y, and alpha is a constant describing the effect of one inhibitor on the binding of another inhibitor 8.
Reversibility experiments were performed in assay buffer lacking bovine skin gelatin. CARM1 […]
mixture was purified using pre-equilibrated 0.5 mL Zeba (7MWCO) spin columns (Thermo Fisher) following manufacturer ’s instructions. CARM1 was diluted to 0.5 nM in an assay reaction mixture using previously described conditions and activity was measured over 2 hours.
Proteins were kept at 4 °C for further activit y testing. Similar results were also obtained when […]
Methyltransf erase cros s screening panel […]
gen eral p rocedu res f rom Knutson et al.9
In cell w estern assay f or detection of asymmetric di -methyl PABP1 an d DNA content RKO cells (ATCC) were maintained in growth medium (DMEM/Glutamax medium supplemented with 10% v/v heat inactivated fetal bovine serum and 100 units/mL penicillin-streptom ycin) and cultured at 37 °C under 5% CO2. Cells were seeded in assay medium at a concentration of 30,000 cells per m L to a pol y -D-l ys ine coated 384 well culture plate with 50 µ L per well. […]

For the compound `CNC[C@@H](O)COc1ccc(Cl)c(-c2nc(-c3c(C)noc3C)c(C)c(N3CC4(CCN(C(=O)OC)CC4)C3)n2)c1` [EZM2302], the IC50 in data set [1] is 13300 nM; in [2], 862 nM; in data set [3], more than 15500 nM; in [4], more than 7330 nM; in [5] it was more than 7330 nM; in [6] (read-out: IC50, PABP1me2a) it was 9 nM. Further, in data set [6] (read-out: IC50, SmBme0), the IC50 came out at 31 nM. This compound registered an inhibition of kinases in data set [7] not above 30%. The “inhibition or stimulation in any of the assays except KOP receptor” value in data set [8] is not above 40%. The “CL in human hepatocytes (scaled)” value in data set [9] was less than 3 mL/min/kg.
